Results from article PMC7767506, “Synthesis and Characterization of Store-Operated Calcium Entry Inhibitors Active in the Submicromolar Range” (International Journal of Molecular Sciences, 2020).
Entries after “also recorded” stand apart in the source; their conditions may differ.

Key:
[1] = system: Jurkat cells; experiment: TUNEL apoptosis assay in Jurkat cells; type: cell-based, human
Method: (§1) To verify the mechanism of cell death induced by compound P11, we next performed caspase-3 activity assays using the fluorogenic Ac-DEVD-AFC substrate as well as a TUNEL assay.
We measured the apoptosis levels in Jurkat cells by the “in situ cell death detection” kit (Roche Applied Science, Meylan, France). Briefly, 50,000 cells/well were seeded in a 96-well plate and treated with or without 10 µg/mL PHA and 0 to 1 µM P11 for 6, 12, or 24 h. Cells were spun, fixed, and permeabilized according to the manufacturer’s instructions and the terminal transferase dUTP Nick end labelling reaction was performed in the dark during 60 min at 37 °C. For visualization of the results, an epifluorescence microscope (Axioskop, Karl Zeiss, Le Pecq, France) was used at an excitation wavelength of 488 nm, and an emission wavelength of 545 nm. Cells were also loaded with 4’,6’ –diamidino-2-phenylindole (DAPI) to visualize the nuclei. Total cell number (>200) and TUNEL-positive cells were counted in several fields (>5) and the ratio of apoptotic cells was calculated. This experiment was repeated three times.

[2] = molecular target: SERCA (Mus musculus, UniProt O55143); experiment: SERCA-mediated 45Ca2+ store loading in permeabilized L15 fibroblasts; type: cell-based
Method: (§2) Measurements of SERCA-mediated ^45Ca^2+ store loading and IP3-dependent release from the ER Ca^2+ store were performed on permeabilized cells in unidirectional conditions. As this approach required the use of cells forming strongly adherent monolayers, we used L15 fibroblasts stably overexpressing IP3R1, similarly to our previous work.
The L15 fibroblasts stably overexpressing IP3R1 were seeded in gelatin-coated 12-well plates (Greiner, Frickenhausen, Germany) at a density of 60,000 cells per well. Unidirectional ^45Ca^2+ flux experiments on confluent cell monolayers were performed at 30 °C after membrane permeabilization with saponin (40 µg/mL), exactly as previously described. After permeabilization, the non-mitochondrial Ca^2+ stores were loaded for 45 min in 120 mM KCl, 30 mM imidazole–HCl (pH 6.8), 5 mM MgCl2, 5 mM ATP, 0.44 mM EGTA, 10 mM NaN3, and 150 nM free ^45Ca^2+ (28 µCi mL^−1). Subsequently, efflux was initiated by incubation in efflux medium (120 mM KCl, 1 mM EGTA, 10 µM TG and 30 mM imidazole–HCl pH 6.8). The latter medium was replaced every two minutes for 18 minutes. The exact amount of Ca^2+ at each time point is calculated by summing in retrograde order the amount of radioactivity remaining in the cells at the end of the efflux and the radioactivity collected during the successive time intervals. This allows to calculate the steady-state content of the ER Ca^2+ stores (indicative for the SERCA activity, after subtraction of the loading achieved in the presence of 2 µM TG) the basal leak rate of Ca^2+ out of the stores and the IP3-induced Ca^2+ release after addition of IP3 (0.7 µM). These various parameters were measured both in control conditions or in the presence of various 2-APB analogs as indicated. To assess the effect of the 2-APB analogs on the SERCA-mediated loading of the ER Ca^2+ stores, the analogs were added during the ^45Ca^2+-loading phase as described previously. Obviously, compounds that strongly stimulated the basal Ca^2+ leak out of the stores (as P8) could not be investigated for their effect on SERCA activity (as Ca^2+ loading was already compromised by the increased leak) or on IP3-induced Ca^2+ release (as the decreased luminal Ca^2+ level impacted both the driving force for Ca^2+ release and the sensitivity of the IP3R).

[3] = system: caspase-3 activity in Jurkat cells; experiment: Fluorometric caspase-3 activity assay (Ac-DEVD-AFC) in Jurkat cells; type: cell-based, human
Method: as §1
Caspase-3 activity was measured using the fluorogenic substrate Ac-DEVD-AFC (Tebu-bio, Le Perray-en-Yvelines, France) according to the manufacturer’s instructions. Briefly, 48-well plates were seeded with 10^6 Jurkat T cells per well. Cells were then incubated for 24 h with 0, 1, or 10 µg/mL PHA and 0 to 1 µM P11 in complete culture medium. After 24 h, cells were collected and lysed in RIPA lysis buffer supplemented with protease inhibitor cocktails (Life Science Biorad, Marnes la Coquette, France). The protein samples were quantified using the DC protein assay reagent (Biorad, Les Ulis, France). Cell lysates (50 µg) were diluted with reaction buffer (200 mM Hepes pH 7.4, 1 mM EDTA, 20% sucrose and 20 mM dithiothreitol) and incubated with the fluorogenic substrate (20 µM final concentration) for 45 min up to 7 h at 37 °C. The release of 7-amino-4-trifluoromethylcoumarin (AFC) was measured by fluorescence (excitation at 405 nm, emission at 505 nm) using a Victor3 plate reader (Perkin Elmer, Courtaboeuf, France).

[4] = system: ER Ca2+ stores of L15 fibroblasts; experiment: Basal Ca2+ leak from ER stores, unidirectional 45Ca2+ flux in permeabilized L15 fibroblasts; type: cell-based
Method: as §2
The L15 fibroblasts stably overexpressing IP3R1 were seeded in gelatin-coated 12-well plates (Greiner, Frickenhausen, Germany) at a density of 60,000 cells per well. Unidirectional ^45Ca^2+ flux experiments on confluent cell monolayers were performed at 30 °C after membrane permeabilization with saponin (40 µg/mL), exactly as previously described. After permeabilization, the non-mitochondrial Ca^2+ stores were loaded for 45 min in 120 mM KCl, 30 mM imidazole–HCl (pH 6.8), 5 mM MgCl2, 5 mM ATP, 0.44 mM EGTA, 10 mM NaN3, and 150 nM free ^45Ca^2+ (28 µCi mL^−1). Subsequently, efflux was initiated by incubation in efflux medium (120 mM KCl, 1 mM EGTA, 10 µM TG and 30 mM imidazole–HCl pH 6.8). […] The exact amount of Ca^2+ at each time point is calculated by summing in retrograde order the amount of radioactivity remaining in the cells at the end of the efflux and the radioactivity collected during the successive time intervals. […] These various parameters were measured both in control conditions or in the presence of various 2-APB analogs as indicated. […]

SERCA, sequence (O55143 whole entry): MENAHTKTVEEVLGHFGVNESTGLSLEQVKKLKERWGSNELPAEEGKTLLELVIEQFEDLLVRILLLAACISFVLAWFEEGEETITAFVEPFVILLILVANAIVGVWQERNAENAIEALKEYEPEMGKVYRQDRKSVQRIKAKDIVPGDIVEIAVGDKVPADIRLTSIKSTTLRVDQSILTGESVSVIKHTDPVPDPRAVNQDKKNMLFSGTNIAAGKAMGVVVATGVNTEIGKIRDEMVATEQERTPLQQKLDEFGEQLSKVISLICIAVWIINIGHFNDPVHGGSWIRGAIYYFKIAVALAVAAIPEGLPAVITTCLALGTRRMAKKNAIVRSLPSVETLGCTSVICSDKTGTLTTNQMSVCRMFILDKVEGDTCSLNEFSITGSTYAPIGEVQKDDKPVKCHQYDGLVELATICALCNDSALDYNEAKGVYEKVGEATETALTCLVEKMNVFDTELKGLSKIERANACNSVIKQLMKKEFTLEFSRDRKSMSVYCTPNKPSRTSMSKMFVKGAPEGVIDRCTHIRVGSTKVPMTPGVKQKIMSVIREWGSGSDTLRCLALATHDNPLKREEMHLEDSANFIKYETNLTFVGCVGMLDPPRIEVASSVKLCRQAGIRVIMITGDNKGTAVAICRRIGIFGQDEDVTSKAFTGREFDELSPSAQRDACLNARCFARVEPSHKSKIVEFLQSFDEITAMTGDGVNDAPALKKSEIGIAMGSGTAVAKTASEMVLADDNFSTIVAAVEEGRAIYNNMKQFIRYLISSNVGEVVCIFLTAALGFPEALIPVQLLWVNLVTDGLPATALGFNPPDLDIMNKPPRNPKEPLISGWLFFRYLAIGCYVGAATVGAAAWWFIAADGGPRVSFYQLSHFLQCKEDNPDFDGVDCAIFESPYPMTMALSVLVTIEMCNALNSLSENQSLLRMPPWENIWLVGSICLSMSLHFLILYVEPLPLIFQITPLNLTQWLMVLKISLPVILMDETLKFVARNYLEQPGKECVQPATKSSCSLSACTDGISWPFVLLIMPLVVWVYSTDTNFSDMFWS

Q: For “2-(dibiphenyl-4-ylboryloxy)ethanamine [P11]”, which “apoptotic cells (TUNEL)” value ([1]; 1 µM P11 alone, 24 h) is on record?
A: Its value is ~ 5%.

Q: And the “cells with fragmented DNA (TUNEL)” value ([1]; 10 µg/mL PHA + 1 µM P11, 24 h)?
A: The value was 17.9 ± 1.2%.

Q: What about the “fold increase of cells with fragmented DNA” value ([1]; PHA + P11 at concentrations > 10 nM, vs resting conditions) of the same substance?
A: Its value is “≈ 4.5 fold”.

Q: What about the “fold increase of apoptotic cells” value ([1]; costimulation PHA + P11 > 10 nM, vs PHA alone (Figure 7 legend)) of the same substance?
A: The value was “≈ 1.5 fold”.

Q: And the “effect on SERCA” value ([2]; concentrations < 1 µM)?
A: Its value is “devoid of any inhibitory activity; also recorded: without any effect”.

Q: And the “change of SERCA activity” value ([2]; concentrations > 30 µM)?
A: The value was −89 ± 1%.

Q: What about the Ki ([2]; permeabilized L15 fibroblasts) of the same substance?
A: Its Ki is 7.4 ± 2 µM.

Q: And the caspase-3 activity ([3]; 10 µg/mL PHA + 1 µM P11, 24 h)?
A: Its caspase-3 activity is 3332 ± 113 AU.

Q: And the “caspase-3 activity, compound alone” value ([3]; P11 alone, up to 1 µM)?
A: The value was “did not induce any increase”.

Q: What about the “concentration giving maximal activating effect on caspase-3 activity” value ([3]; with 10 µg/mL PHA, 24 h) of the same substance?
A: The value was 10 nM.

Q: And the “Ca2+ leak from the ER by an IP3-independent pathway” value [4]?
A: The value was “did not induce a Ca^2+ leak”.
